Measurements published in patent US20110009335A1, “Anticancer Treatments” (priority 2008, published 2011).
Read-outs that look alike come from different tables or passages of the source. Starred links: 1 amine or outer side, 2 acyl side, 3 side chain; linkers in the order of their positions; H or OH if unused. Positions of bridges follow the written chain, without caps; N, C: chain ends. Non-standard residues stand in square brackets, D forms with d. Residues, ends and D or L forms follow the SMILES beside them. *: point of attachment. X1 = CC[C@H](C)[C@@H](N[*:1])[C@@H](O)CC(=O)O[C@H](C(=O)[C@H](C)C(=O)[*:2])C(C)C; NMeY = CN[C@@H](Cc1ccc(O)cc1)C(=O)O; dNMeL = CN[C@H](CC(C)C)C(=O)O; Pyruvoyl = CC(=O)C(=O)*

Key:
[1] = tested on: CAKI-1 human renal tumor xenograft; test: Aplidine with sorafenib, CAKI-1 xenograft in athymic nude mice (Example 1); type: in vivo
Description: Female athymic nude mice (Harlan Sprague Dawley, Madison, Wis.) were utilized for all experiments. Mice were implanted with tumor fragments or a cell suspension when mice were 5 weeks of age. Animals were housed in ventilated rack caging, 5 mice per cage, with food and water ad libitum. The mice were acclimated for 1 week prior to being implanted with tumor fragments or cell suspensions.
Tumor measurements were determined by using Vernier calipers. The formula to calculate volume for a prolate ellipsoid was used to estimate tumor volume (mm^3) from 2-dimensional tumor measurements: Tumor volume (mm^3)=[L×W^2]÷2, where L is the length and it is the longest diameter in mm, and W is the width and it is the shortest diameter in mm of a tumor. Assuming unit density, volume was converted to weight (i.e., 1 mm^3=1 mg).
(§1) Body weights were recorded on treatment days and when tumor sizes were measured. In those days wherein the two drugs were administered the same day, the combination therapy groups were treated by co-administering the two drugs at the same time, with no attempt to sequence the treatments.
(§2) Aplidine was provided in the form of vials of lyophilized aplidine powder which was reconstituted in Cremophor EL/ethanol/water (CEW) 15/15/70 to a concentration of 0.5 mg/ml. Then the aplidine solution in CEW was diluted in 0.9% Saline to the dosing formulation concentrations, being the final proportion of CEW of 0.18/0.18/0.84.
Tumor size measurements were recorded twice weekly from the treatment initiation until the termination of the study.
(§3) Mean, standard deviation and standard error of the mean were determined for tumor volume for all animal groups at all assessments. Student's t test was performed on tumor volumes at each measurement day, including at the end of the study, to determine whether there were any statistically significant differences between combination treatment groups and single monotherapy treatment groups.
Determine the % of tumor growth inhibition, as 100−% T/C, for each of the drugs administered as monotherapy at the doses used in the combinations. % T/C was obtained by comparing the mean tumor weight in the treatment groups (T) to the mean tumor weight in the control group (C) (T/C×100%). • 2. The two scores were added together to determine the “expected response” if each agent produced the same response as it did when administered as monotherapy. • 3. This “expected response” was subtracted from the % of tumor growth inhibition determined for the combination therapy group: • a. A negative number meant that the effect of combining the two drugs was less than additive. • b. If the resulting number was close to zero, the effect of combining the two drugs was determined as additive. • c.

[2] = tested on: NCI-H-460 human NSCLC xenograft; test: Aplidine with temsirolimus, NCI-H-460 xenograft in athymic nude mice (Example 5); type: in vivo; details: for % Inhibition G2: aplidine 0.06 mg/kg/day; for antitumor activity as single agent (monotherapy): temsirolimus 10 and 20 mg/kg/day; for % Inhibition G4: temsirolimus 10 mg/kg/day; for % Inhibition G3: temsirolimus 20 mg/kg/day
Description: Female athymic nude mice (Harlan Sprague Dawley, Madison, Wis.) were utilized for all experiments. Mice were implanted with a cell suspension when mice were 6-8 weeks of age. Animals were housed in ventilated rack caging with food and water ad libitum. The mice were acclimated for at least 5 days prior to tumor implantation.
The tumor model used in this study was NCI-H-460, which is a human NSCLC cell line obtained from the ATCC (Manassas, Va.). NCI-H-460 cells were grown in RPMI-1640 medium, 10% FBS, 10 mM Hepes, 1 mM sodium pyruvate, 4.5 g/l glucose, 1.5 g/l sodium bicarbonate and 2 mM L-glutamine. Cells from in vitro passage 11 were implanted SC into study mice: 5×10^6 cells/mouse in 0.2 ml 50% Matrigel/50% medium without antibiotics or serum, using a 23 G needle and 1 cc syringe.
Tumor measurements were determined as disclosed in Example 1. When tumor growth was within an average size range of 110±25 mg (mean±SD), mice were randomized into the treatment and control groups based on tumor weight by using LabCat® In Life module V 8.0 SP1 tumor tracking and measurement software.
as §1, with “The treatment of NCI-H-460-tumor-bearing mice was initiated on DPI (Day Post Implantation) 7. Body” for “Body”
as §2, with “The” for “Then the”
Temsirolimus was provided in the form of vials containing a non-aqueous, ethanolic, sterile solution of temsirolimus, 25 mg/ml. […] Then, the solution was further diluted in 0.9% Saline to the dosing formulation concentrations.
Tumor size measurements were recorded twice weekly from the treatment initiation until the termination of the study. Tumor growth inhibition was assessed comparing the mean tumor weight between the two agents in combination (aplidine and temsirolimus) against temsirolimus mean tumor weight at the different concentrations assayed.
as §3
The definition and criteria for the evaluation of potentiation and the degree of additivity for the combination therapy were the same as those disclose in Example 1.

[3] = aplidine 0.040 and/or sorafenib 30 mg/kg/day
[4] = aplidine 0.060 and/or sorafenib 60 mg/kg/day
[5] = G2: aplidine 0.060 mg/kg/day IP
[6] = CAKI-1 study, Example 4 (temsirolimus)
[7] = NCI-H-460 study, Example 5 (temsirolimus)
[8] = G3: temsirolimus 20 mg/kg/day IP
[9] = G4: temsirolimus 10 mg/kg/day IP

CNC(=O)c1cc(Oc2ccc(NC(=O)Nc3ccc(Cl)c(C(F)(F)F)c3)cc2)ccn1 [sorafenib]
% T/C on day 7 [1, 3]: 116.6% | % T/C on day 9 [1, 3]: 130.2% | % T/C on day 13 [1, 3]: 105.4% | % T/C on day 21 [1, 3]: 113.0% | % T/C on day 23 [1, 3]: 117.1% | % T/C on day 28 [1, 3]: 90.3% | % T/C on day 31 [1, 3]: 84.0% | % T/C on day 34 [1, 3]: 86.0% | % T/C on day 37 [1, 3]: 92.8% | % T/C on day 41 [1, 3]: 98.0% | % T/C on day 44 [1, 3]: 105.8% | % T/C on day 49 [1, 3]: 102.8% | % T/C on day 7 [1, 4]: 100.6% | % T/C on day 9 [1, 4]: 128.9% | % T/C on day 13 [1, 4]: 104.5% | % T/C on day 21 [1, 4]: 121.2% | % T/C on day 23 [1, 4]: 116.6% | % T/C on day 28 [1, 4]: 110.5% | % T/C on day 31 [1, 4]: 105.2% | % T/C on day 34 [1, 4]: 110.2% | % T/C on day 37 [1, 4]: 119.5% | % T/C on day 41 [1, 4]: 120.5% | effect on body weight / toxicity (mouse, in vivo): did not cause a significant decline in mean body weight

CC[C@H](C)[C@H]1NC(=O)[C@@H](NC(=O)[C@@H](CC(C)C)N(C)C(=O)[C@@H]2CCCN2C(=O)C(C)=O)[C@@H](C)OC(=O)[C@H](Cc2ccc(OC)cc2)N(C)C(=O)[C@@H]2CCCN2C(=O)[C@H](CC(C)C)NC(=O)[C@@H](C)C(=O)[C@H](C(C)C)OC(=O)C[C@@H]1O [aplidine, dehydrodidemnin B] (Pyruvoyl-P[dNMeL]T[X1]LP[NMeY](Me); ester 3-C)
% T/C on day 7 [1, 3]: 115.8% | % T/C on day 9 [1, 3]: 124.7% | % T/C on day 13 [1, 3]: 101.5% | % T/C on day 16 [1, 3]: 108.2% | % T/C on day 21 [1, 3]: 104.9% | % T/C on day 23 [1, 3]: 104.3% | % T/C on day 28 [1, 3]: 104.6% | % T/C on day 31 [1, 3]: 96.8% | % T/C on day 34 [1, 3]: 100.9% | % T/C on day 37 [1, 3]: 108.7% | % T/C on day 41 [1, 3]: 109.5% | % T/C on day 44 [1, 3]: 108.4% | % T/C on day 49 [1, 3]: 104.4% | % T/C on day 7 [1, 4]: 103.9% | % T/C on day 9 [1, 4]: 113.8% | % T/C on day 13 [1, 4]: 101.6% | % T/C on day 16 [1, 4]: 105.7% | % T/C on day 21 [1, 4]: 108.5% | % T/C on day 23 [1, 4]: 109.0% | % T/C on day 28 [1, 4]: 107.5% | % T/C on day 31 [1, 4]: 100.3% | % T/C on day 34 [1, 4]: 101.8% | % T/C on day 37 [1, 4]: 107.7% | % T/C on day 41 [1, 4]: 103.1% | % T/C on day 44 [1, 4]: 99.4% | % T/C on day 49 [1, 4]: 96.5% | antitumor activity as single agent (monotherapy) ([1]; doses and schedules tested): inactive | % T/C on day 7 [2, 5]: 101.2% | % T/C on day 10 [2, 5]: 95.5% | % T/C on day 13 [2, 5]: 73.2% | % T/C on day 16 [2, 5]: 77.4% | % T/C on day 20 [2, 5]: 88.5% | % T/C on day 23 [2, 5]: 84.3% | % T/C on day 27 [2, 5]: 86.4% | % T/C on day 29 [2, 5]: 96.9% | % T/C on day 31 [2, 5]: 96.0% | % Inhibition G2 ([2]; day 7): −1.2% | % Inhibition G2 ([2]; day 10): 4.5% | % Inhibition G2 ([2]; day 13): 26.8% | % Inhibition G2 ([2]; day 16): 22.6% | % Inhibition G2 ([2]; day 20): 11.5% | % Inhibition G2 ([2]; day 23): 15.7% | % Inhibition G2 ([2]; day 27): 13.6% | % Inhibition G2 ([2]; day 29): 3.1% | % Inhibition G2 ([2]; day 31): 4.0% | antitumor activity as single agent (monotherapy) [2]: inactive | effect on body weight / toxicity (A498 study, Example 2 (sunitinib)): did not cause a significant decline in mean body weight | effect on body weight / toxicity (CAKI-1 study, Example 1 (sorafenib)): did not cause a significant decline in mean body weight | effect on body weight / toxicity (CAKI-1 study, Example 2 (sunitinib)): did not cause a significant decline in mean body weight | effect on body weight / toxicity [6]: did not cause a significant decline in mean body weight | effect on body weight / toxicity (HepG2 study, Example 6 (sorafenib)): did not cause a significant decline in mean body weight | effect on body weight / toxicity (LOX-IMVI study, Example 7 (sorafenib)): did not cause a significant decline in mean body weight | effect on body weight / toxicity (MRI-H-121 study, Example 2 (sunitinib)): did not cause a significant decline in mean body weight | effect on body weight / toxicity [7]: did not cause a significant decline in mean body weight

CO[C@H]1C[C@@H]2CC[C@@H](C)[C@@](O)(O2)C(=O)C(=O)N2CCCC[C@H]2C(=O)O[C@H]([C@H](C)C[C@@H]2CC[C@@H](OC(=O)C(C)(CO)CO)[C@H](OC)C2)CC(=O)[C@H](C)/C=C(\C)[C@@H](O)[C@@H](OC)C(=O)[C@H](C)C[C@H](C)/C=C/C=C/C=C/1C [temsirolimus]
% T/C on day 7 [2, 8]: 98.2% | % T/C on day 10 [2, 8]: 41.2% | % T/C on day 13 [2, 8]: 30.5% | % T/C on day 16 [2, 8]: 30.9% | % T/C on day 20 [2, 8]: 26.3% | % T/C on day 23 [2, 8]: 27.4% | % T/C on day 27 [2, 8]: 35.6% | % T/C on day 29 [2, 8]: 48.2% | % T/C on day 31 [2, 8]: 56.8% | % T/C on day 7 [2, 9]: 102.1% | % T/C on day 10 [2, 9]: 49.9% | % T/C on day 13 [2, 9]: 37.1% | % T/C on day 16 [2, 9]: 34.1% | % T/C on day 20 [2, 9]: 30.9% | % T/C on day 23 [2, 9]: 31.4% | % T/C on day 27 [2, 9]: 42.6% | % T/C on day 29 [2, 9]: 57.8% | % T/C on day 31 [2, 9]: 60.3% | % Inhibition G4 ([2]; day 7): −2.1% | % Inhibition G4 ([2]; day 10): 50.1% | % Inhibition G4 ([2]; day 13): 62.9% | % Inhibition G4 ([2]; day 16): 65.9% | % Inhibition G4 ([2]; day 20): 69.1% | % Inhibition G4 ([2]; day 23): 68.6% | % Inhibition G4 ([2]; day 27): 57.4% | % Inhibition G4 ([2]; day 29): 42.2% | % Inhibition G4 ([2]; day 31): 39.7% | % Inhibition G3 ([2]; day 7): 1.8% | % Inhibition G3 ([2]; day 10): 58.8% | % Inhibition G3 ([2]; day 13): 69.5% | % Inhibition G3 ([2]; day 16): 69.1% | % Inhibition G3 ([2]; day 20): 73.7% | % Inhibition G3 ([2]; day 23): 72.6% | % Inhibition G3 ([2]; day 27): 64.4% | % Inhibition G3 ([2]; day 29): 51.8% | % Inhibition G3 ([2]; day 31): 43.2% | antitumor activity as single agent (monotherapy) [2]: meeting the NCI criteria for activity | effect on body weight / toxicity [6]: did not cause a significant decline in mean body weight | effect on body weight / toxicity [7]: did not cause a significant decline in mean body weight
